Data from patent US20140120087A1, “TRIAZOLOPYRIDINES” (BAYER INTELLECTUAL PROPERTY GMBH, priority 2011, published 2014).

Assays:
[1] = biological target: T1, Mps-1 kinase (Homo sapiens, UniProt P33981); assay: Mps-1 kinase assay with 10 μM ATP (TR-FRET)
T1 sequence (P33981 1-857): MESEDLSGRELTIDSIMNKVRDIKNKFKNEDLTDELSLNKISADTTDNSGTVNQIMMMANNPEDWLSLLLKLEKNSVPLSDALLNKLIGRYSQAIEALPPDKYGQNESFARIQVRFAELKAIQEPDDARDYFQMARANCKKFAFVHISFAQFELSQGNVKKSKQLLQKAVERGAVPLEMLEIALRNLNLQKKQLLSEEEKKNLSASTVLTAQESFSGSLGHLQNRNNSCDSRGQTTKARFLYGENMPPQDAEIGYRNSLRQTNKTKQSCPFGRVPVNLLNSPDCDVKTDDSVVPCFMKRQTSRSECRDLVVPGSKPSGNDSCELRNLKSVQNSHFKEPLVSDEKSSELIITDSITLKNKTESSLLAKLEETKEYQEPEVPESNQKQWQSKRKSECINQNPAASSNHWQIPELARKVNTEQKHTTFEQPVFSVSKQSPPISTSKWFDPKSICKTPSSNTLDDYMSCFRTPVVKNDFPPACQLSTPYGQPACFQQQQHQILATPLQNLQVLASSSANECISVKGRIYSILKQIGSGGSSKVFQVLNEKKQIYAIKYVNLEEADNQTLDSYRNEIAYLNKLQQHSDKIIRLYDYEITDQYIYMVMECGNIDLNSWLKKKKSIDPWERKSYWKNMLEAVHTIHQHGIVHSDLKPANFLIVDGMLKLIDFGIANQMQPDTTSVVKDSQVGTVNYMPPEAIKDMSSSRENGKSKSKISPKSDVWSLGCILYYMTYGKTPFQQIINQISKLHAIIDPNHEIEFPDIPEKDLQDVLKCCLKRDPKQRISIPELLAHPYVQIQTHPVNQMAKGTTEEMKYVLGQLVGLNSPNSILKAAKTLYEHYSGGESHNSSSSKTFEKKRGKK

[2] = biological target: T1, Mps-1 kinase; assay: Mps-1 kinase assay with 2 mM ATP (TR-FRET)
[3] = Hydrolytic stability assay at pH 2; type: physicochemical; settings: buffer pH 2, 37° C., compounds of the invention
Method: The hydrolytic stability assay investigates the stability of a compound in an aqueous buffer system. Standard solution stability assay is run in 0.05 M Phosphate buffer at pH 7.4 (pH of blood plasma) at 37° C. As compounds in the GI tract are exposed to a wide variety of pHs any relevant pH (as pH 2 to simulate the acidic condition of the GI tract in the following experiment) can be chosen. Compounds are incubated in relevant solution at 37° C. and analyzed by HPLC immediately after incubation and after 1, 2 and 24 hrs. Degradation rate (decay in %) is calculated by relating peak areas after 1, 2 and 24 hrs to the time zero injection.
Compound is available as 10 mM in DMSO (solution 1). 2.5 μL of solution 1 is dissolved in 1 mL acetonitrile leading to solution 2. Poorly soluble compounds may demand another dilution step of solution 2 (1:5 and 1:10 respectively) in Acetonitrile). Solution 2 is incubated at 37° C. in a tempered HPLC autosampler. 1 mL buffer pH 2 is transferred into an HPLC vial. 100 μL of solution 2 is added to the buffer pH 2 solution and mixed thoroughly. Immediately after mixing the combined solution is injected into the HPLC to give the time zero injection. Injections are repeated after 1, 2 and 24 hrs.
The degradation rate (decay in %) is calculated using HPLC software Millennium and Excel respectively.

SMILES	IC50 [1] [nM]	IC50 [2] [nM]	Hydrolysis at pH 2; Decay in % after 24 h [3] [%]
CCCOc1cc(C(=O)N(CC)CC)ccc1Nc1nc2ccc(-c3ccc(NC(=O)Cc4ccc(F)cc4)cc3)cn2n1 [Example 01.23, N,N-diethyl-4-{[6-(4-{[(4-fluorophenyl)acetyl]amino}phenyl)[1,2,4]triazolo-[1,5-α]pyridin-2-yl]amino}-3-propoxybenzamide]	≤ 1	1.1	<10
O=C(Cc1ccc(F)cc1)Nc1ccc(-c2ccc3nc(Nc4ccc(C(=O)NCC(F)(F)F)cc4OCC(F)(F)F)nn3c2)cc1 [Example 01.27, 4-{[6-(4-{[(4-fluorophenyl)acetyl]amino}phenyl)[1,2,4]triazolo[1,5-α]-pyridin-2-yl]amino}-3-(2,2,2-trifluoroethoxy)-N-(2,2,2-trifluoroethyl)-benzamide]	≤ 1	≤ 1	<10
CCOc1cc(C(=O)N(CC)CCOC)ccc1Nc1nc2ccc(-c3ccc(NC(=O)Cc4ccc(F)cc4)cc3)cn2n1 [Example 01.18, 3-ethoxy-N-ethyl-4-{[6-(4-{[(4-fluorophenyl)acetyl]amino}phenyl)[1,2,4]-triazolo[1,5-α]pyridin-2-yl]amino}-N-(2-methoxyethyl)benzamide]	≤ 1	≤ 1	<10
COc1cc(C#N)ccc1Nc1nc2ccc(-c3ccc(NC(=O)Cc4ccc(F)cc4)cc3)cn2n1 [Example 01.2, N-(4-{2-[(4-cyano-2-methoxyphenyl)amino][1,2,4]triazolo[1,5-α]pyridin-6-yl}phenyl)-2-(4-fluorophenyl)acetamide]	≤ 1	4.1	<10
CCOc1cc(C(=O)N(CC)CC)ccc1Nc1nc2ccc(-c3ccc(NC(=O)Cc4ccc(F)cc4)cc3)cn2n1 [Example 01.10, 3-ethoxy-N,N-diethyl-4-{[6-(4-{[(4-fluorophenyl)acetyl]amino}phenyl)-[1,2,4]triazolo[1,5-α]pyridin-2-yl]amino}benzamide]	≤ 1	≤ 1	<10
CCN(CC)C(=O)c1ccc(Nc2nc3ccc(-c4ccc(NC(=O)Cc5ccc(F)cc5)cc4)cn3n2)c(OCCOC)c1 [Example 01.26, N,N-diethyl-4-{[6-(4-{[(4-fluorophenyl)acetyl]amino}phenyl)[1,2,4]triazolo-[1,5-α]pyridin-2-yl]amino}-3-(2-methoxyethoxy)benzamide]	≤ 1	21	<10
CNCCN(C)C(=O)c1ccc(Nc2nc3ccc(-c4ccc(NC(=O)Cc5ccc(F)cc5)cc4)cn3n2)c(OC)c1 [Example 01.20, 4-{[6-(4-{[(4-fluorophenyl)acetyl]amino}phenyl)[1,2,4]triazolo[1,5-α]-pyridin-2-yl]amino}-3-methoxy-N-methyl-N-[2-(methylamino)ethyl]-benzamide]	≤ 1	≤ 1	<10
CCN(CC)C(=O)c1ccc(Nc2nc3ccc(-c4ccc(NC(=O)Cc5ccc(F)cc5)cc4)cn3n2)c(OCC(F)(F)F)c1 [Example 01.22, N,N-diethyl-4-{[6-(4-{[(4-fluorophenyl)acetyl]amino}phenyl)[1,2,4]triazolo-[1,5-α]pyridin-2-yl]amino}-3-(2,2,2-trifluoroethoxy)benzamide]	≤ 1	≤ 1	<10
CCN(CC)C(=O)c1ccc(Nc2nc3ccc(-c4ccc(NC(=O)Cc5ccc(F)cc5)cc4)cn3n2)c(OCC2CC2)c1 [Example 01.24, 3-(cyclopropylmethoxy)-N,N-diethyl-4-{[6-(4-{[(4-fluorophenyl)acetyl]-amino}phenyl)[1,2,4]triazolo[1,5-α]pyridin-2-yl]amino}benzamide]	≤ 1	1.2	<10

The remaining lines, values ahead:

IC50 [1] [nM]	IC50 [2] [nM]	Hydrolysis at pH 2; Decay in % after 24 h [3] [%]	SMILES
≤ 1	4.3	<10	COc1cc(C(=O)NC(C)(C)CO)ccc1Nc1nc2ccc(-c3ccc(C(=O)NCc4ccc(F)cc4)c(OC)c3)cn2n1 [Example 08.1, N-(4-fluorobenzyl)-4-[2-({4-[(1-hydroxy-2-methylpropan-2-yl)carbamoyl]-2-methoxyphenyl}amino)[1,2,4]triazolo[1,5-α]pyridin-6-yl]-2-methoxybenz-amide]
≤ 1	2.4	<10	CCOc1cc(C(=O)NC(C)(C)C)ccc1Nc1nc2ccc(-c3ccc(C(=O)NCc4ccc(F)cc4)cc3)cn2n1 [Example 02.21, N-tert-butyl-3-ethoxy-4-[(6-{4-[(4-fluorobenzyl)carbamoyl]phenyl}[1,2,4]-triazolo[1,5-α]pyridin-2-yl)amino]benzamide]
≤ 1	≤ 1	<10	CCOc1cc(C(=O)NCCS(C)(=O)=O)ccc1Nc1nc2ccc(-c3ccc(C(=O)NCc4ccc(F)cc4)cc3)cn2n1 [Example 02.19, 3-ethoxy-4-[(6-{4-[(4-fluorobenzyl)carbamoyl]phenyl}[1,2,4]triazolo[1,5-α]pyridin-2-yl)amino]-N-[2-(methylsulfonyl)ethyl]benzamide]
≤ 1	≤ 1	<10	O=C(NCCO)c1ccc(Nc2nc3ccc(-c4ccc(C(=O)NCc5ccc(F)cc5)cc4)cn3n2)c(OCC(F)(F)F)c1 [Example 02.4, 4-[(6-{4-[(4-fluorobenzyl)carbamoyl]phenyl}[1,2,4]triazolo[1,5-α]pyridin-2-yl)amino]-N-(2-hydroxyethyl)-3-(2,2,2-trifluoroethoxy)benzamide]
≤ 1	11	<10	O=C(NCCO)c1ccc(Nc2nc3ccc(-c4ccc(C(=O)NCC5CC5)cc4)cn3n2)c(OCC(F)(F)F)c1 [Example 06.4, 4-[(6-{4-[(cyclopropylmethyl)carbamoyl]phenyl}[1,2,4]triazolo[1,5-α]-pyridin-2-yl)amino]-N-(2-hydroxyethyl)-3-(2,2,2-trifluoroethoxy)benzamide]
≤ 1	≤ 1	<10	CC(C)(CO)NC(=O)c1ccc(Nc2nc3ccc(-c4ccc(C(=O)NCc5ccc(F)cc5)cc4)cn3n2)c(OCC(F)(F)F)c1 [Example 02.18, 4-[(6-{4-[(4-fluorobenzyl)carbamoyl]phenyl}[1,2,4]triazolo[1,5-α]pyridin-2-yl)amino]-N-(1-hydroxy-2-methylpropan-2-yl)-3-(2,2,2-trifluoroethoxy)-benzamide]
≤ 1	1.5	<10	COc1cc(C(=O)NC(C)(C)CO)ccc1Nc1nc2ccc(-c3ccc(C(=O)NCc4ccc(F)cc4)cc3)cn2n1 [Example 02.8, 4-[(6-{4-[(4-fluorobenzyl)carbamoyl]phenyl}[1,2,4]triazolo[1,5-α]pyridin-2-yl)amino]-N-(1-hydroxy-2-methylpropan-2-yl)-3-methoxybenzamide]
≤ 1	16	<10	COc1cc(C(=O)NC(C)(C)CO)ccc1Nc1nc2ccc(-c3ccc(C(=O)NCc4ccc(F)cc4)c(C)c3)cn2n1 [Example 04.1, N-(4-fluorobenzyl)-4-[2-({4-[(1-hydroxy-2-methylpropan-2-yl)carbamoyl]-2-methoxyphenyl}amino)[1,2,4]triazolo[1,5-α]pyridin-6-yl]-2-methylbenz-amide]
≤ 1	≤ 1	<10	CCOc1cc(C(=O)NCC(C)(C)O)ccc1Nc1nc2ccc(-c3ccc(C(=O)NCc4ccc(F)cc4)cc3)cn2n1 [Example 02.7, 3-ethoxy-4-[(6-{4-[(4-fluorobenzyl)carbamoyl]phenyl}[1,2,4]triazolo[1,5-α]pyridin-2-yl)amino]-N-(2-hydroxy-2-methylpropyl)benzamide]
